Measurements from patent US10130590B2, “Methods of treating cancer with atovaquone-related compounds” (DANA-FARBER CANCER INSTITUTE, INC., priority 2013, dated 2018).
Entries after “also recorded” stand apart in the source; their conditions may differ.

Columns and labels:
U266 cells = test: Cell viability (Cell Titer Glo), U266; assay type: cell-based, human; details: 72 hours
Description: Western blotting was performed as previously described (Battle T E, Arbiser J, & Frank D A (2005) The natural product honokiol induces caspase dependent apoptosis in B-cell chronic lymphocytic leukemia (B-CLL) cells. Blood 106(2):690-697). Antibodies to phospho-MAPK (9101), total MAPK (9102), phospho-Y705 STAT3 (9131), phospho-S6 (2215), total S6 (2217), phospho-4E-BP1 (9451), total 4E-BP1 (9644), total RSK (9355), phospho-S6K (9234, 85 used at 1:5000), total S6K (2708), phospho-eIF2α (9721, used at 1:1000), total eIF2α (5324), ATF4 (11815, used at 1:1000), PDGFRβ (3169), IGF1Rβ (9750), EGFR (2232), and HER2 (2242) were from Cell Signaling Technology. Phospho-RSK antibody was from R&D (AF889). Antibodies to total STAT3 (sc-482) and gp130 (sc-656, used at 1:1000) were from Santa Cruz Biotechnology. Phospho-S727 STAT3 antibody was described previously (229). REDD1 antibody was from Proteintech (10638-1-AP, used at 1:1000). Antibody recognizing full-length and cleaved ATF6 was from Abcam (ab122897, used at 1:1000). Antibodies to tubulin (T5168) and beta actin (A5316) were from Sigma. All antibodies were used at 1:10000 dilution for western blot unless otherwise noted. […] Cell viability was measured as ATP-dependent luminescence by Cell Titer Glo (Promega). […]

[1] = system: JAK family members (TYK2, JAK2); test: JAK auto-phosphorylation in cells (immunoprecipitation, Western blot); assay type: cell-based; details: U266 15 μM 1 hour (TYK2); HEL 20 μM 6 hours (JAK2)
Description: Western blotting was performed as previously described (Battle T E, Arbiser J, & Frank D A (2005) The natural product honokiol induces caspase dependent apoptosis in B-cell chronic lymphocytic leukemia (B-CLL) cells. Blood 106(2):690-697). Antibodies to phospho-MAPK (9101), total MAPK (9102), phospho-Y705 STAT3 (9131), phospho-S6 (2215), total S6 (2217), phospho-4E-BP1 (9451), total 4E-BP1 (9644), total RSK (9355), phospho-S6K (9234, 85 used at 1:5000), total S6K (2708), phospho-eIF2α (9721, used at 1:1000), total eIF2α (5324), ATF4 (11815, used at 1:1000), PDGFRβ (3169), IGF1Rβ (9750), EGFR (2232), and HER2 (2242) were from Cell Signaling Technology. Phospho-RSK antibody was from R&D (AF889). Antibodies to total STAT3 (sc-482) and gp130 (sc-656, used at 1:1000) were from Santa Cruz Biotechnology. […] Cell viability was measured as ATP-dependent luminescence by Cell Titer Glo (Promega).
To understand how atovaquone inhibits STAT3 phosphorylation, the possibility that atovaquone decreases the kinase activity of JAKs, which are responsible for STAT3 activation in the systems previously tested was considered. To assess kinase activity, the extent of kinase auto-phosphorylation, which provides a cellular readout of kinase activity, was first analyzed. […] Due to technical limitations, tyrosine phosphorylation of other JAK family members was not detected in U266 cells. […]

STAT1 = STAT1 phosphorylation in cancer cells; assay type: cell-based
Source text: It has been discovered, using an unbiased gene expression-based approach, that atovaquone is a novel STAT3 inhibitor. Atovaquone acts by diminishing cell-surface gp130 expression and STAT3 tyrosine phosphorylation. As a consequence, critical STAT3 target genes mediating survival and proliferation are reduced, such as survivin, Bcl-2 family members, and cyclin D1. Moreover, atovaquone inhibits the viability of STAT3-dependent cancer cells by inducing apoptosis and disrupting cell cycle progression. […] Since STAT5 activation is crucial to cancer pathogenesis caused by JAK2-V617F, the additional inhibition of STAT5 in this context is a desirable effect of atovaquone. […] Because the effects of atovaquone on STAT activation are restricted to gp130-dependent signaling, atovaquone inhibits STATs more selectively than direct pharmacological JAK inhibition. […] At the same time, the actions of atovaquone extend to all cytokines that signal through gp130, including LIF and OSM, thereby exerting broader effects than therapies specifically directed against IL-6 or IL-6 receptor, such as monoclonal antibodies. This is also advantageous, since oncogenic effects of LIF and OSM have been reported.

[2] = clinical use; cited from earlier work

Structure (SMILES): O=C1C(O)=C([C@H]2CC[C@H](c3ccc(Cl)cc3)CC2)C(=O)c2ccccc21 [atovaquone, trans-2-[4-(4-chlorophenyl)cyclohexyl]-3-hydroxy-1,4-naphthalenedione]
- viability of U266 cells (U266 cells): killed
- auto-phosphorylation of JAK family members in cells [1]: inhibited the auto-phosphorylation of JAK family members
- mutant JAK2-dependent phosphorylation of STAT1 (STAT1; HEL cells): inhibited
- IL-6-dependent phosphorylation of STAT1 (STAT1; INA-6 and U266 cells): inhibited IL-6-dependent phosphorylation of STAT1
- side effects / tolerability [2]: side effects are minimal; also recorded: extremely well-tolerated in humans
